Blank lines part the entries; values can stand above or below the compound they belong to.
Columns and labels:
[1] = Azure A method, in vitro binding of betaine to heparin
Protocol: This experiment utilized stock solutions of azure A, heparin, betaine, and a betaine-heparin combination in order to determine in vitro binding of betaine to Heparin. The stock solution of azure A was prepared at 4×10^−5 mol L^−1 by solubilizing 58.35 mg azure A in 50 ml of sterile injectable water. Next, 10 ml of this solution was diluted in 90 ml of sterile injectable water. The resulting solution was diluted again by taking 10 ml of this solution and diluting it in 90 ml of sterile injectable water. Finally, the resulting solution is filtered on Watman paper and aliquots of 4 ml are realized. The stock solution of Heparin was prepared by diluting the manufacturer-supplied stock solution (5000 UI/ml having ±150 UI/mg), (LEO Pharma, Ballerup, Denmark). One ml of this supplied solution was diluted in 499 ml of sterile injectable water in order to obtain a 10 UI/ml in final concentration. The betaine stock solution was prepared by diluting betaine in sterile injectable water in order to obtain a final concentration of 10 mg/ml. The Heparin-betaine combination stock solution was prepared by mixing 12 ml of the betaine stock solution prepared as noted above with 14.4 ml of the manufacturer-supplied Heparin stock solution (corresponding to 120 mg of betaine and 480 mg Heparin). This mixture was agitated for 2 minutes while mixing and then incubated for 10 minutes at 20° C. The final combination solution is then prepared by taking 1 ml of the solution after incubation and diluting it in 499 ml of sterile injectable water.
Each stock solution was then tested at six dilutions for its effect on heparin binding to azure A dye. The first dilution consisted of 0 μl solution, 400 μl water and 4 ml azure A solution. The second dilution consisted of 80 μl solution, 320 μl water and 4 ml azure A solution. The third dilution consisted of 160 μl solution, 240 μl water and 4 ml azure A solution. The fourth dilution consisted of 240 μl solution, 160 μl water and 4 ml azure A solution. The fifth dilution consisted of 320 μl solution, 80 μl water and 4 ml azure A solution. The sixth dilution consisted of 400 μl solution, 0 μl water and 4 ml azure A solution. Each dilution was then subjected to the azure A method which is a rapid and simple spectrophotometric method for determining heparin concentration following the formation of a soluble complex between heparin and azure A dye. Chemically, azure A is formed by 3 benzene nuclei and a terminal N^+. This soluble complex changes the typically blue color of the azure dye to purple. The principle of the test is based on the spectrophotometric absorption of the heparin/azure A dye complex at 632 nm. Heparin binding to azure A results in lowered absorbance and the solution gradually turns deeper purple as heparin concentration increases. In the presence of a substance which binds to heparin (e.g., protamine), azure A retains its blue color and absorbance remains constant. The results of this test are provided in the following table which illustrates that no significant change in the absorbance of azure A occurs when betaine is combined with heparin. However, Heparin alone has a significant effect on azure A absorption.

blood cells = experiment: Blood cell counts; assay type: in vivo, rat; conditions: rat; glycine betaine 5 mg/kg, acetylsalicylic acid 100 mg/kg, heparin 2 mg/kg
[2] = system: arterial thrombosis induced by laser beam in the mesenteric microcirculation of the rat; experiment: Laser-induced thrombosis in the mesenteric microcirculation; assay type: in vivo
Excerpt: A/Principle of Laser-induced Thrombosis (Seiffge D. et al., 1989; Weichter W. et al., 1983).
In this model, lesion of the vascular wall is induced by a laser beam. This beam causes a limited lesion of the vascular endothelium (only 1 to 2 cells are destroyed). This laying bare of the sub-endothelium, which is a thrombogenetic surface, results in the adherence of platelets via […]. This adherence of platelets is followed by the activation thereof. They form pseudopods and secrete the content of their granules. This activation results in the appearance of glycoproteins IIb-IIIa which are necessary for the aggregation of the platelets between them. This lesion is induced in the mesenteric microcirculation of the rat. It is immediately followed by the formation of a thrombus (in a few seconds). This thrombus, which rapidly enlarges under the influence of the flow of blood, embolises before being formed again.
By this manes, the assessment of the effect of glycine betaine was conducted pharmacologically in conjunction with the study of two active molecules used as a reference; namely acetylsalicylic acid and heparin (of low molecular weight). The assessment also involved the activity of glycine betaine in relation to the prothrombotic effects induced by contrasting products.
Male Wistar rats were used for these tests. They weighed between 200 and 250 grams. After an 8-day stabilisation period, the rats were subjected to fasting for 12 hours. They were then anaesthetised, glycine betaine was administered subcutaneously, and the mesentery (laser) or vena cava (stasis) was opened at the end of the experiments.

bleeding time in rats = experiment: Induced haemorrhagic (bleeding) time, tail cut; assay type: in vivo, rat; conditions: for B.T.C. (bleeding time caused): 5 mg/ml/kg; for Provoked haemorrhage: after 24 hours; for Induced haemorrhage: oral 50 mg/kg; for Bleeding time: rat, glycine betaine 5 mg/kg, acetylsalicylic acid 100 mg/kg, heparin 2 mg/kg
Protocol: Induced Haemorrahgic Time IHT
(E. Dejana. Bleeding time in rats. Thrombosis. Rech. 1982) Blood samples are made before the test. The tail of anaesthetised rat, is dipped for 5 minutes in a water bath at 37° C. so as to provoke a dilatation of the peripheral vessels which are removed and cut at the end, the chronometer being started. The IHT is defined as being the time period comprised between the cutting of end tail and the end of the haemorrhage or bleeding. The end of haemorrhage is defined as the time where the last drop of blood is removed from the tail and no other drop is seen for 180 seconds. […]

[3] = Heparin UI/ml (reference) 2, second dilution, 80 μl stock solution
[4] = Heparin UI/ml (reference) 4, third dilution, 160 μl stock solution
[5] = Heparin UI/ml (reference) 6, fourth dilution, 240 μl stock solution
[6] = Heparin UI/ml (reference) 8, fifth dilution, 320 μl stock solution
[7] = Heparin UI/ml (reference) 10, sixth dilution, 400 μl stock solution
[8] = 5 mg/ml/kg, Group I: injected 1 hour before
[9] = 5 mg/ml/kg, Group II: injected 2 hours before
[10] = 5 mg/ml/kg, Group III: injected 3 hours before
[11] = 5 mg/ml/kg, Group IV: injected 4 hours before
[12] = 24 hours after sub cutaneous 10 mg/kg
[13] = 24 hours after sub cutaneous administration, title 20 mg/kg, table line 10 mg/kg
[14] = rat, after laser firings, glycine betaine 5 mg/kg, acetylsalicylic acid 100 mg/kg, heparin 2 mg/kg

Absorbance of azure A at 632 nm [1, 3]: 1.241
Absorbance of azure A at 632 nm [1, 4]: 1.213
Absorbance of azure A at 632 nm [1, 5]: 1.1937
Absorbance of azure A at 632 nm [1, 6]: 1.1612
Absorbance of azure A at 632 nm [1, 7]: 1.154
Number of platelets (blood cells): 804.67 ± 20.03 10^9
Number of red corpuscles (blood cells): 6.19 ± 0.25 10^12
Number of white corpuscles (blood cells): 4.43 ± 0.32 10^9
B.T.C. (bleeding time caused) (bleeding time in rats; Group I: injected 1 hour before the experiment): 105 ± 26.2 s
B.T.C. (bleeding time caused) (bleeding time in rats; Group II: injected 2 hours before the experiment): 145 ± 15.52 s
B.T.C. (bleeding time caused) (bleeding time in rats; Group III: injected 3 hours before the experiment): 115.5 ± 14.2 s
B.T.C. (bleeding time caused) (bleeding time in rats; Group IV: injected 4 hours before the experiment): 120 ± 10.13 s
Provoked Haemorrhage time (bleeding time in rats; 10 mg/kg subcutaneous): 105 s
Provoked haemorrhage (bleeding time in rats; 10 mg/kg subcutaneous): 114 ± 12.76 s
Provoked haemorrhage (bleeding time in rats; 20 mg/kg subcutaneous): 110 ± 13.22 s
Provoked Haemorrhage time (bleeding time in rats; 30 mg/kg subcutaneous): 112 s
Provoked Haemorrhage time (bleeding time in rats; 50 mg/kg subcutaneous): 115 s
Induced haemorrhage (bleeding time in rats; 1 hour): 120 ± 5 s
Induced haemorrhage (bleeding time in rats; 6 hours): 111 ± 3.6 s
Induced haemorrhage (bleeding time in rats; 24 hours): 113.33 ± 18.92 s
Induced haemorrhage (bleeding time in rats; 48 hours): 109 ± 8.54 s
Bleeding time (bleeding time in rats): 95 ± 5 s
Compound: C[N+](C)(C)CC(=O)O [Glycine betaine]
Duration of embolisation [2, 8]: 0.51 ± 0.5 min
Number of emboles [2, 8]: 1.8 ± 1.44
Number of firings [2, 8]: 3.49 ± 1.07
Duration of embolisation [2, 9]: 0.3 ± 0.23 min
Number of emboles [2, 9]: 1.4 ± 1.18
Number of firings [2, 9]: 3.0 ± 1.5
Duration of embolisation [2, 10]: 1.00 ± 0.5 min
Number of emboles [2, 10]: 1.99 ± 0.4
Number of firings [2, 10]: 2.50 ± 1.25
Duration of embolisation [2, 11]: 1.5 ± 0.6 min
Number of emboles [2, 11]: 2.2 ± 0.69
Number of firings [2, 11]: 2.7 ± 1.0
Embolisation time [2, 12]: 0 ± 0 min
Number of emboles [2, 12]: 1 +/− 0
Number of laser firing [2, 12]: 3.33 +/− 0.57
Embolisation time [2, 13]: 0 ± 0 min
Number of emboles [2, 13]: 0.66 +/− 0.57
Number of laser firing [2, 13]: 3.33 +/− 0.57
Embolisation time ([2]; oral 50 mg/kg, 1 hour): 0 ± 0 min
Number of laser firing ([2]; oral 50 mg/kg, 1 hour): 4 +/− 0
Embolisation time ([2]; oral 50 mg/kg, 6 hours): 1 ± 0 min
Number of emboles ([2]; oral 50 mg/kg, 6 hours): 2.33 +/− 0.57
Number of laser firing ([2]; oral 50 mg/kg, 6 hours): 3.66 +/− 0.57
Embolisation time ([2]; oral 50 mg/kg, 24 hours): 1 ± 0 min
Number of emboles ([2]; oral 50 mg/kg, 24 hours): 2.33 +/− 0.57
Number of laser firing ([2]; oral 50 mg/kg, 24 hours): 2.33 +/− 0.57
Number of emboles ([2]; oral 50 mg/kg, 48 hours): 4.33 +/− 0.57
Duration of embolisation [2, 14]: 1 ± 0 min
Number of emboles or embolies [2, 14]: 2 ± 0

Absorbance of azure A at 632 nm [1, 3]: 1.0608
Absorbance of azure A at 632 nm [1, 4]: 0.8399
Absorbance of azure A at 632 nm [1, 5]: 0.5797
Absorbance of azure A at 632 nm [1, 6]: 0.358
Absorbance of azure A at 632 nm [1, 7]: 0.205
Number of platelets (blood cells): 777.33 ± 6.43 10^9
Number of red corpuscles (blood cells): 6.20 ± 0.20 10^12
Number of white corpuscles (blood cells): 5.80 ± 0.10 10^9
Bleeding time (bleeding time in rats): 313.33 ± 20 s
Compound: Heparin
Duration of embolisation [2, 14]: 1 ± 0 min
Number of emboles or embolies [2, 14]: 2.67 ± 0.52

Source: patent US7608640B2, “Glycine betaine and its use” (priority 2001, dated 2009)
